Reference: patent US6585954B1, “Method for searching steroid sulfatase inhibitors” (Kyowa Hakko Kogyo Co., Ltd., priority 1998, dated 2003)

Experiments:
[1] = tested on: tumor of transformed cell line carrying the introduced human steroid sulfatase gene (STS); experiment: Effect of a steroid sulfatase inhibitor on estrone-3-sulfate-dependent tumor growth in nude mice (Example 5); type: in vivo, BALB/c-nu/nu mice; conditions: 0.1 mg/kg estrone-3-sulfate alone, subcutaneously for 22 days; by the 38th day
Method: The volume of a tumor can be calculated from the shorter diameter and the longer diameter of the tumor measured with slide calipers according to the following approximation formula.
Tumor volume=(longer diameter)×(shorter diameter)^2÷2
Animals in which the tumor growth was confirmed after administration of estrone-3-sulfate are selected, and a test compound is administered thereto. Then, the tumor volume is measured to estimate the steroid sulfatase-inhibiting activity of the test compound. The test compound may be administered by any of intravenous, subcutaneous, intraperitoneal and oral routes. The steroid sulfatase-inhibiting activity of the compound can be estimated by measuring the tumor volume at intervals of 3-4 days after the administration, and then comparing the tumor growth between the group to which only estrone-3-sulfate was administered and the group to which estrone-3-sulfate and the test compound were administered.
(§1) The cells were suspended at a concentration of 2×10^8 cells/ml and the suspension was mixed with an equal volume of matrigel-basement membrane (Becton & Dickinson). The resulting mixture was subcutaneously transplanted into 7- to 8-weeks-old female BALB/c-nu/nu mice, (nude mice, each group consisting of 5 mice) in an amount of 0.1 ml (1×10^7 cells). […]

[2] = tested on: transformed cell line carrying the introduced human steroid sulfatase gene (STS); experiment: Tumor formation after transplantation of cells carrying an introduced steroid sulfatase gene (Example 4); type: in vivo, BALB/c-nu/nu mice; conditions: 0.1 mg/kg estrone-3-sulfate subcutaneously every day, after tumor growth stopped following estrogen preparation
From the text: First, cells carrying the introduced steroid sulfatase gene are transplanted into an animal such as a mouse for fixation to form a tumor. That is, tumor cells carrying the introduced steroid sulfatase gene are transplanted subcutaneously into an immunodeficient mouse, for example, a BALB/c-nu/nu (a nude mouse) or an SCID mouse in an amount of 1-5×10^6 cells to form a tumor. At the time of transplantation, a crude extract of basement membrane containing adhesion factor (e.g., matrigel-basement membrane, Becton & Dickinson) may be added in order to improve the fixation rate [Br. J. Cancer, 67, 953 (1993)]. In the case of estrogen-dependent breast cancer, the fixation rate is improved and the tumor growth after the fixation is promoted by administering an estrogen compound.
as §1, with “cells). On the day of transplantation and 2 weeks later, an estrogen preparation (EP depo, Teikoku Zoki) was intramuscularly administered.” for “cells).”

C[C@]12CC[C@@H]3c4ccc(OS(=O)(=O)O)cc4CC[C@H]3[C@@H]1CCC2=O [estrone-3-sulfate]
tumor volume relative to the initial volume [1]: 1.4 times the initial volume | tumor growth after administration [2]: the tumor grew in all mice and there was no reduction of tumor
